Laboratory results from ChEMBL document CHEMBL5678818, “Discovery of potent SOS1 inhibitors that block RAS activation via disruption of the RAS-SOS1 interaction” (Proc Natl Acad Sci U S A, 2019).

Columns and labels:
[1] = test system: Proto-oncogene tyrosine-protein kinase receptor Ret (Homo sapiens), P07949 [V804M]; experiment: Inhibition of RET V804M mutant (unknown origin) assessed as residual activity at 1000 nM by KINOMEscan analysis relative to control
[2] = target: LIM domain kinase 2 (Homo sapiens) (UniProt P53671); experiment: Inhibition of LIMK2 (unknown origin) assessed as residual activity at 1000 nM by KINOMEscan analysis relative to control
LIM domain kinase 2 (Homo sapiens), sequence (P53671 whole entry, looked up, the tested form may be a part): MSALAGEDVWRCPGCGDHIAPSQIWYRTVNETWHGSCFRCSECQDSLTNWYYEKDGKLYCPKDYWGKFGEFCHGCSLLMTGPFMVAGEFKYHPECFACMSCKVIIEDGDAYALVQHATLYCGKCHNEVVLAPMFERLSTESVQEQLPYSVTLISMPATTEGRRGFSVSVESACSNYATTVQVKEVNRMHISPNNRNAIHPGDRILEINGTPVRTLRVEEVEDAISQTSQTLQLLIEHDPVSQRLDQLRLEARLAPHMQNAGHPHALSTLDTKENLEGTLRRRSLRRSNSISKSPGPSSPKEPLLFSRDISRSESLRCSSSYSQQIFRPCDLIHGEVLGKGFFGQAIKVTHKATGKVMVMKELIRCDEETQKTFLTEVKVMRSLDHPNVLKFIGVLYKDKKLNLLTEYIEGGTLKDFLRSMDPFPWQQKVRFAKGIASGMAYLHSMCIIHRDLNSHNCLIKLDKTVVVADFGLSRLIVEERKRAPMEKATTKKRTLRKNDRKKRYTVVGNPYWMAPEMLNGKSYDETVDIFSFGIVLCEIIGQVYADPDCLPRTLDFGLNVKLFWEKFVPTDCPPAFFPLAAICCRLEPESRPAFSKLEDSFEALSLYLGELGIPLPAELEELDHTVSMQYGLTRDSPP

[3] = target: T1, Tyrosine-protein kinase ITK/TSK (Homo sapiens) (UniProt Q08881); experiment: Inhibition of ITK (unknown origin) assessed as residual activity at 1000 nM by KINOMEscan analysis relative to control
T1 sequence (whole entry): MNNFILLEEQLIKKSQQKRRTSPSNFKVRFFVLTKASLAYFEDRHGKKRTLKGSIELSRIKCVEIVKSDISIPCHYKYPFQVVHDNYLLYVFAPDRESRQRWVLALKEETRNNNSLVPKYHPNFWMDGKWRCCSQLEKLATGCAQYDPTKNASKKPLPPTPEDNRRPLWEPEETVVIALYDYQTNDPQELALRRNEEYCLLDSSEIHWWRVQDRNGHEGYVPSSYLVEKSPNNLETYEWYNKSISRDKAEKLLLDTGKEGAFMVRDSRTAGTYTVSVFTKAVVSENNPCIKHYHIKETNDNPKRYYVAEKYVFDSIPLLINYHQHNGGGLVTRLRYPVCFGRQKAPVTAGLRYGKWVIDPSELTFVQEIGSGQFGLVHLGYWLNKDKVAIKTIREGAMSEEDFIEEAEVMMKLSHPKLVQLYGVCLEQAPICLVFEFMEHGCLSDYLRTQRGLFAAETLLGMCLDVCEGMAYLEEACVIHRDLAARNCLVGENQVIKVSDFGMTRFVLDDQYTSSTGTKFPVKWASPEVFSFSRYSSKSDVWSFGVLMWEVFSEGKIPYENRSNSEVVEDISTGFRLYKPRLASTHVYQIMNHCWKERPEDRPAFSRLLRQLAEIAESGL

[4] = target: T2, Mitogen-activated protein kinase kinase kinase 3 (Homo sapiens) (UniProt Q99759); experiment: Inhibition of MAP3K3 (unknown origin) assessed as residual activity at 1000 nM by KINOMEscan analysis relative to control
T2 sequence (whole entry): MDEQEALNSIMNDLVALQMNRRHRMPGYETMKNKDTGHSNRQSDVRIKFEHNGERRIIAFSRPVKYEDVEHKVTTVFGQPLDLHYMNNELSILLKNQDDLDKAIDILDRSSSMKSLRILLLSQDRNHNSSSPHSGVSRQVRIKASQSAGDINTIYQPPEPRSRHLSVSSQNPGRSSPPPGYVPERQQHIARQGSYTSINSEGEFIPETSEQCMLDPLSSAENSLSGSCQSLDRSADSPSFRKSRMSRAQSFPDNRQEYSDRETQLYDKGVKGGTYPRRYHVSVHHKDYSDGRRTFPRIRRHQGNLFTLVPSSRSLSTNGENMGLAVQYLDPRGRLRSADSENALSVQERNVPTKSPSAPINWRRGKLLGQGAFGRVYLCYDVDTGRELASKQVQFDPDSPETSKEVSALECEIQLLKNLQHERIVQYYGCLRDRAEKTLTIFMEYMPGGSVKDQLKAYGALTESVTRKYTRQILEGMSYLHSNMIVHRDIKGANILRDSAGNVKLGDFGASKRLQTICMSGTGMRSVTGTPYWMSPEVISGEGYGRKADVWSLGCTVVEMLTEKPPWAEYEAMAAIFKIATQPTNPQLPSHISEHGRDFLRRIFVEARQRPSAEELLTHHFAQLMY

[5] = target: Tyrosine-protein kinase CSK (Homo sapiens) (UniProt P41240); experiment: Inhibition of CSK (unknown origin) assessed as residual activity at 1000 nM by KINOMEscan analysis relative to control
Tyrosine-protein kinase CSK (Homo sapiens), sequence (P41240 2-450 limits assumed): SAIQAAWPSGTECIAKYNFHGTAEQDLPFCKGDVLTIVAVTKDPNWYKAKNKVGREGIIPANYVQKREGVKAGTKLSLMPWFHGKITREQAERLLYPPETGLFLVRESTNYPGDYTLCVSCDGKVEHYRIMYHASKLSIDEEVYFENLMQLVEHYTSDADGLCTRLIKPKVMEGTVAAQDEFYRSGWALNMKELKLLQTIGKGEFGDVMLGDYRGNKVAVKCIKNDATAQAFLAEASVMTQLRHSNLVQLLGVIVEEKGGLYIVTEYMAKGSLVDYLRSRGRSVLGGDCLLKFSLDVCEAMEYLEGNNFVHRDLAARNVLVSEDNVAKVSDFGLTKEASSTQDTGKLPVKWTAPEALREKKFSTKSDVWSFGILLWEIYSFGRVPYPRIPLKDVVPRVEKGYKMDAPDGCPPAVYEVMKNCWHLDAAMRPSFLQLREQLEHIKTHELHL

[6] = target: T3, Mitogen-activated protein kinase 15 (Homo sapiens) (UniProt Q8TD08); experiment: Inhibition of ERK8 (unknown origin) assessed as residual activity at 1000 nM by KINOMEscan analysis relative to control
T3 sequence (whole entry): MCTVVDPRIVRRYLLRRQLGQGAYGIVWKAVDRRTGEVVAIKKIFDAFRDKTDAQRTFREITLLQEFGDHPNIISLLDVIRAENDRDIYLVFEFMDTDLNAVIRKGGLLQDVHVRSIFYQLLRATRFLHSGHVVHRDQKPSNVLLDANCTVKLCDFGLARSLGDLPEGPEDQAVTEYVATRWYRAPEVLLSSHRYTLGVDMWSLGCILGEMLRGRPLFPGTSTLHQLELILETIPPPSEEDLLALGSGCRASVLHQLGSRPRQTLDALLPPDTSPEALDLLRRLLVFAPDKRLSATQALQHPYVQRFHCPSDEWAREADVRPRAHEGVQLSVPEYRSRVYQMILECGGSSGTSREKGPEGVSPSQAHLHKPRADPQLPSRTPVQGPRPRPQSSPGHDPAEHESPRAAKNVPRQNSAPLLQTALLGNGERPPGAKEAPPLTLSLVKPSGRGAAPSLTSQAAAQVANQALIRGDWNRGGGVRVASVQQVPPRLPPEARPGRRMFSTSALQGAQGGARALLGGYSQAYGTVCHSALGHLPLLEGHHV

[7] = target: T4, Serine/threonine-protein kinase Sgk1 (Homo sapiens) (UniProt O00141); experiment: Inhibition of SGK (unknown origin) assessed as residual activity at 1000 nM by KINOMEscan analysis relative to control
T4 sequence (whole entry): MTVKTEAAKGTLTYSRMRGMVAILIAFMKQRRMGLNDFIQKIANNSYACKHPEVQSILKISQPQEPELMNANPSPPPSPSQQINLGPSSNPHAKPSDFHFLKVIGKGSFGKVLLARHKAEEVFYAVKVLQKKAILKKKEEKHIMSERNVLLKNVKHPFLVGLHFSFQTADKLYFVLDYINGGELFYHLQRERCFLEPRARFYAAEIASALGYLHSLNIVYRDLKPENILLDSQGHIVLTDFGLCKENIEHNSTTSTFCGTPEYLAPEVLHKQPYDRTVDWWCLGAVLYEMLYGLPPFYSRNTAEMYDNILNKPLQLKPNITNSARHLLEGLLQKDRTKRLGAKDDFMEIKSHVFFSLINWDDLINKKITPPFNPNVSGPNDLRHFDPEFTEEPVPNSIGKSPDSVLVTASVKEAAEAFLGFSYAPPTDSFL

[8] = target: cAMP-dependent protein kinase catalytic subunit alpha (Homo sapiens) (UniProt P17612); experiment: Inhibition of PKAC-alpha (unknown origin) assessed as residual activity at 1000 nM by KINOMEscan analysis relative to control

Proto-oncogene tyrosine-protein kinase receptor Ret (Homo sapiens), P07949 [V804M], sequence (P07949 whole entry V804M, the tested form may be a part): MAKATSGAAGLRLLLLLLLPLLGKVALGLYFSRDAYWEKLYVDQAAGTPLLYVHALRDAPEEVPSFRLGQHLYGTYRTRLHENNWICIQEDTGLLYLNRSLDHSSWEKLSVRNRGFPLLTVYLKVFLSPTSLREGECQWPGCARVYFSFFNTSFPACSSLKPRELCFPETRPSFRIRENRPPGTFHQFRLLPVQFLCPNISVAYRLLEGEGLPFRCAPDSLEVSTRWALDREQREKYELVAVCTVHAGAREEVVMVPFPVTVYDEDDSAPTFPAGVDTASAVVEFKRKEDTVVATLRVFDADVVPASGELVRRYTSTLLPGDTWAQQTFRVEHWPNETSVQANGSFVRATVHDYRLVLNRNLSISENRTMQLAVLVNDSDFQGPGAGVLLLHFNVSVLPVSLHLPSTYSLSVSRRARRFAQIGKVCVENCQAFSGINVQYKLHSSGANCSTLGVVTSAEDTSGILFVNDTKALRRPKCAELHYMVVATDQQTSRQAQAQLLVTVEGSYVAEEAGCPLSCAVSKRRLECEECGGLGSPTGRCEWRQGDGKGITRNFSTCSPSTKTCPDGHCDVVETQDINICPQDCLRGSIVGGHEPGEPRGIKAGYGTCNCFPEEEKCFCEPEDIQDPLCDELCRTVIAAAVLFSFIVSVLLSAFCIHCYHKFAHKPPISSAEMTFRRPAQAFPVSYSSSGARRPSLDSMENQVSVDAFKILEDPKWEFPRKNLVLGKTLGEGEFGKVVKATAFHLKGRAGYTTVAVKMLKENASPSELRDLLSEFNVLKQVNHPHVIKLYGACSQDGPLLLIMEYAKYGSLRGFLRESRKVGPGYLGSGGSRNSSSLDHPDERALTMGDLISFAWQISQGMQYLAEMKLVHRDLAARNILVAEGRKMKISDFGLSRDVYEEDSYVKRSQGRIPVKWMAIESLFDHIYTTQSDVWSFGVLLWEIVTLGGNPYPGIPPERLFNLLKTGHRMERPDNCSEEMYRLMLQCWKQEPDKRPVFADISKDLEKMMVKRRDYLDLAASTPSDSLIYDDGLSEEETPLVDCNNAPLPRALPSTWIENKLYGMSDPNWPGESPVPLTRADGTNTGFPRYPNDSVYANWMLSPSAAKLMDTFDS

| Structure (SMILES) | Activity [1] [%] | Activity [2] [%] | Activity [3] [%] | Activity [4] [%] | Activity [5] [%] | Activity [6] [%] | Activity [7] [%] | Activity [8] [%] |
| --- | --- | --- | --- | --- | --- | --- | --- | --- |
| COc1cc2nc(C)nc(N[C@H](C)c3cccc(-c4cn[nH]c4)c3)c2cc1OC | 92 | 100 | 67 | 95 | 93 | 60 | 74 | 97 |
| COc1cc2ncnc(N[C@H](C)c3cccc4ccccc34)c2cc1OC | 100 | 92 | 100 | 100 | 87 | 100 | 11 | 95 |
